Measurements: the NIST ThermoML archive (doi:10.1016/j.jct.2015.05.001)
Several values for one entry are separate records, joined by “and”; a condition that tells them apart may be missing. Identical values can stand only once.

Legend:
[1] = for Triple point temperature: DTA
[2] = Molar enthalpy of transition or fusion; conditions: Crystal; DSC

Brc1ccc2c(c1)Cc1ccccc1-2 [2-bromofluorene]
[1]
Conditions | vapor or sublimation pressure
327.17 K, Crystal, Calculated from knudsen effusion weight loss | 0.000118 kPa and 0.000119 kPa
329.13 K, Crystal, Calculated from knudsen effusion weight loss | 0.00015 kPa and 0.000148 kPa
331.09 K, Crystal, Calculated from knudsen effusion weight loss | 0.000186 kPa and 0.000183 kPa
333.16 K, Crystal, Calculated from knudsen effusion weight loss | 0.000223 kPa and 0.000225 kPa and 0.000229 kPa
335.14 K, Crystal, Calculated from knudsen effusion weight loss | 0.00028 kPa and 0.000275 kPa and 0.000279 kPa
337.11 K, Crystal, Calculated from knudsen effusion weight loss | 0.000347 kPa and 0.000346 kPa and 0.000343 kPa
339.16 K, Crystal, Calculated from knudsen effusion weight loss | 0.000417 kPa and 0.000416 kPa and 0.000425 kPa
341.14 K, Crystal, Calculated from knudsen effusion weight loss | 0.000515 kPa and 0.000501 kPa
343.1 K, Crystal, Calculated from knudsen effusion weight loss | 0.000627 kPa and 0.000626 kPa and 0.000634 kPa
345.16 K, Crystal, Calculated from knudsen effusion weight loss | 0.000749 kPa and 0.000747 kPa and 0.000758 kPa
347.09 K, Crystal, Calculated from knudsen effusion weight loss | 0.000928 kPa and 0.000929 kPa and 0.000909 kPa
349.09 K, Crystal, Calculated from knudsen effusion weight loss | 0.00112 kPa and 0.001125 kPa and 0.001127 kPa
350.8 K, Crystal, Closed cell (Static) method | 0.001323 kPa
352.79 K, Crystal, Closed cell (Static) method | 0.001593 kPa
354.74 K, Crystal, Closed cell (Static) method | 0.001921 kPa
356.73 K, Crystal, Closed cell (Static) method | 0.002274 kPa
358.7 K, Crystal, Closed cell (Static) method | 0.002726 kPa
360.67 K, Crystal, Closed cell (Static) method | 0.003206 kPa
362.65 K, Crystal, Closed cell (Static) method | 0.003848 kPa
364.63 K, Crystal, Closed cell (Static) method | 0.00452 kPa
366.6 K, Crystal, Closed cell (Static) method | 0.005367 kPa
368.56 K, Crystal, Closed cell (Static) method | 0.006271 kPa
370.56 K, Crystal, Closed cell (Static) method | 0.007492 kPa
372.53 K, Crystal, Closed cell (Static) method | 0.008716 kPa
374.47 K, Metastable liquid, Closed cell (Static) method | 0.012 kPa
374.5 K, Crystal, Closed cell (Static) method | 0.0103 kPa
376.47 K, Crystal, Closed cell (Static) method | 0.01202 kPa
376.47 K, Metastable liquid, Closed cell (Static) method | 0.01362 kPa
378.44 K, Crystal, Closed cell (Static) method | 0.01403 kPa
378.44 K, Metastable liquid, Closed cell (Static) method | 0.01541 kPa
380.4 K, Crystal, Closed cell (Static) method | 0.01634 kPa
380.4 K, Metastable liquid, Closed cell (Static) method | 0.01749 kPa
382.39 K, Metastable liquid, Closed cell (Static) method | 0.01992 kPa
384.36 K, Metastable liquid, Closed cell (Static) method | 0.02244 kPa
386.34 K, Metastable liquid, Closed cell (Static) method | 0.02529 kPa
388.31 K, Metastable liquid, Closed cell (Static) method | 0.02854 kPa
390.28 K, Closed cell (Static) method, Liquid | 0.03201 kPa
392.25 K, Closed cell (Static) method, Liquid | 0.03602 kPa
394.21 K, Closed cell (Static) method, Liquid | 0.04022 kPa
396.18 K, Closed cell (Static) method, Liquid | 0.04506 kPa
398.13 K, Closed cell (Static) method, Liquid | 0.05046 kPa
400.11 K, Closed cell (Static) method, Liquid | 0.05625 kPa
402.06 K, Closed cell (Static) method, Liquid | 0.0628 kPa
404.05 K, Closed cell (Static) method, Liquid | 0.06988 kPa
405.99 K, Closed cell (Static) method, Liquid | 0.0774 kPa
407.97 K, Closed cell (Static) method, Liquid | 0.08499 kPa
409.95 K, Closed cell (Static) method, Liquid | 0.0938 kPa
411.9 K, Closed cell (Static) method, Liquid | 0.1045 kPa
413.88 K, Closed cell (Static) method, Liquid | 0.1164 kPa
415.84 K, Closed cell (Static) method, Liquid | 0.1264 kPa
417.81 K, Closed cell (Static) method, Liquid | 0.1398 kPa
419.77 K, Closed cell (Static) method, Liquid | 0.1534 kPa

Conditions | Triple point temperature [K]
[1], Crystal | 387.39

Conditions | Molar enthalpy of transition or fusion [kcal/mol]
[2] | 4.07

Brc1ccc2c(c1)Cc1cc(Br)ccc1-2 [2,7-dibromofluorene]
[1], Crystal
Conditions | vapor or sublimation pressure
361.15 K, Calculated from knudsen effusion weight loss | 9.5e-05 kPa and 9.7e-05 kPa and 9.6e-05 kPa
363.14 K, Calculated from knudsen effusion weight loss | 0.000119 kPa and 0.000118 kPa
365.11 K, Calculated from knudsen effusion weight loss | 0.000147 kPa and 0.000148 kPa and 0.000144 kPa
367.16 K, Calculated from knudsen effusion weight loss | 0.000177 kPa and 0.000179 kPa
369.11 K, Calculated from knudsen effusion weight loss | 0.000218 kPa and 0.000214 kPa and 0.000215 kPa
371.1 K, Calculated from knudsen effusion weight loss | 0.000267 kPa and 0.000261 kPa
373.15 K, Calculated from knudsen effusion weight loss | 0.000318 kPa and 0.000315 kPa and 0.000319 kPa
375.12 K, Calculated from knudsen effusion weight loss | 0.000392 kPa and 0.000388 kPa and 0.000382 kPa
377.12 K, Calculated from knudsen effusion weight loss | 0.000472 kPa and 0.000478 kPa and 0.000463 kPa
379.15 K, Calculated from knudsen effusion weight loss | 0.000556 kPa and 0.00056 kPa and 0.000563 kPa
381.12 K, Calculated from knudsen effusion weight loss | 0.000678 kPa and 0.000687 kPa and 0.000674 kPa
382.23 K, Closed cell (Static) method | 0.000732 kPa
383.12 K, Calculated from knudsen effusion weight loss | 0.000809 kPa and 0.000827 kPa and 0.000832 kPa
384.26 K, Closed cell (Static) method | 0.000874 kPa
386.08 K, Closed cell (Static) method | 0.001029 kPa
388.21 K, Closed cell (Static) method | 0.001254 kPa
390.11 K, Closed cell (Static) method | 0.001472 kPa
392.14 K, Closed cell (Static) method | 0.001751 kPa
394.16 K, Closed cell (Static) method | 0.002104 kPa
396.08 K, Closed cell (Static) method | 0.002489 kPa
398.07 K, Closed cell (Static) method | 0.002922 kPa

Conditions | Triple point temperature [K]
[1], Crystal | 438.79

Conditions | Molar enthalpy of transition or fusion [kcal/mol]
[2] | 5.43
